Experimental data: patent US7897582B2, “Oligonucleotide compositions and methods for the modulation of the expression of B7 protein” (Isis Pharmaceuticals, Inc., priority 2003, dated 2011)
Strand notation (5' to 3'): a small letter for the sugar, then the base; units joined by * are phosphorothioate-linked, units joined directly phosphodiester-linked; [ ] holds rarer units or linkages, { } end groups; capitals alone tell only the bases. e = 2'-O-(2-methoxyethyl) (MOE); [5mC] = 5-methylcytosine; d = 2'-deoxy (DNA)

Assays:
human B7-2 = experiment: Cell surface expression of B7-2 in transfected COS-7 cells by flow cytometry; assay type: cell-based; parameters: % Control Protein: concentration or dose not given beside the values; details: hB7-2 protein, flow cytometry; Table 5
Protocol: A T-175 flask was seeded at 75% confluency with COS-7 cells (ATCC accession No. CRL 1651). The plasmid pcB7-1 was introduced into cells by standard calcium phosphate transfection. Following a 4 hour transfection, the cells were trypsinized and seeded in 12-well dishes at 80% confluency. The cells were allowed to adhere to the plastic for 1 hour and were then washed with phosphate-buffered saline (PBS). OptiMEM™ (GIBCO-BRL, Gaithersburg, Md.) medium was added along with 15 μg/mL of Lipofectin™ (GIBCO-BRL, Gaithersburg, Md.) and oligonucleotide at the indicated concentrations. After four additional hours, the cells were washed with phosphate buffered saline (PBS) and incubated with fresh oligonucleotide at the same concentration in DMEM (Dulbecco et al., Virol., 1959, 8, 396; Smith et al., Virol., 1960, 12, 185) with 10% fetal calf sera (FCS).
In order to monitor the effects of oligonucleotides on cell surface expression of B7-1, treated COS-7 cells were harvested by brief trypsinization 24-48 hours after oligonucleotide treatment. The cells were washed with PBS, then resuspended in 100 μL of staining buffer (PBS, 0.2% BSA, 0.1% azide) with 5 μL conjugated anti-B7-1-antibody (i.e., anti-hCD80-FITC, Ancell, Bayport, Minn.; FITC: fluorescein isothiocyanate). The cells were stained for 30 minutes at 4° C., washed with PBS, resuspended in 300 μL containing 0.5% paraformaldehyde. Cells were harvested and the fluorescence profiles were determined using a flow cytometer.
In an initial screen, the ability of hB7-2 oligonucleotides to inhibit B7-2 expression was evaluated by measuring the cell surface expression of B7-2 in transfected COS-7 cells by flow cytometry. The methods used were similar to those given in Example 2, with the exceptions that (1) COS-7 cells were transfected with the plasmids pbcB7-2 or BBG-58, a human ICAM-1 (CD54) expression vector (R&D Systems, Minneapolis, Minn.) introduced into cells by standard calcium phosphate transfection, (2) the oligonucleotides used were those described in Table 2, and (3) a conjugated anti-B7-2 antibody (i.e., anti-hCD86-FITC or anti-CD86-PE, PharMingen, San Diego, Calif.; PE: phycoerythrin) was used during flow cytometry.
B7 antisense oligonucleotides were tested for their effect on cell surface expression of both B7-1 and B7-2. Cell surface expression was measured as described in Example 1. Experiments were done for both human B7 and mouse B7.
The oligonucleotides were screened as described in Example 2 except that the concentration of oligonucleotide was varied as shown in Table 19.

hB7-2 mRNA = experiment: Ribonuclease protection assay of hB7-2 mRNA in transfected COS-7 cells; assay type: cell-based, human; parameters: % Control RNA Expression: concentration or dose not given beside the values; details: for % Control RNA Expression: hB7-2 mRNA, Table 5
Protocol: For ribonuclease protection assays, cells were harvested 18 hours after completion of oligonucleotide treatment using a Totally RNA™ kit (Ambion, Austin, Tex.). The probes for the assay were generated from plasmids pcB7-2 (linearized by digestion with Bgl II) and pTRI-b-actin (Ambion Inc., Austin, Tex.). In vitro transcription of the linearized plasmid from the SP6 promoter was performed in the presence of α-^32P-UTP (800 Ci/mmole) yielding an antisense RNA complementary to the 3′ end of B7-2 (position 1044-1391). The probe was gel-purified after treatment with DNase I to remove DNA template. Ribonuclease protection assays were carried out using an RPA II™ kit (Ambion) according to the manufacturer's directions. Total RNA (5 μg) was hybridized overnight, at 42° C., with 10^5 cpm of the B7-2 probe or a control beta-actin probe. The hybridization reaction was then treated, at 37° C. for 30 minutes, with 0.4 units of RNase A and 2 units of RNase T1. Protected RNA was precipitated, resuspended in 10 μL of gel loading buffer and electrophoresed on a 6% acrylamide gel with 50% w/v urea at 20 W. The gel was then exposed and the lanes quantitated using a PhosphorImager (Molecular Dynamics, Sunnyvale, Calif.) essentially according to the manufacturer's instructions.
The oligonucleotides were screened as described in Example 4 except that the concentration of oligonucleotide was varied as shown in Table 13. Mismatch control oligonucleotides were included.

Human B7-2 mRNA = Human B7-2 mRNA expression in electroporated THP-1 cells induced with LPS and dibutyryl cAMP; assay type: cell-based; details: THP-1 cells electroporated at 10 micromolar oligonucleotide, LPS and dibutyryl cAMP (500 μM) 16 hours
Text: The human promonocytic leukaemia cell line, THP-1 (American Type Culture Collection, Manassas, Va.) was maintained in RPMI 1640 growth media supplemented with 10% fetal calf serum (FCS; Life Technologies, Rockville, Md.). A total of 1×10^7 cells were electroporated at an oligonucleotide concentration of 10 micromolar in 2 mm cuvettes, using an Electrocell Manipulator 600 instrument (Biotechnologies and Experimental Research, Inc.) employing 200 V, 1000 μF. Electroporated cells were then transferred to petri dishes and allowed to recover for 16 hrs Cells were then induced with LPS and dibutyryl cAMP (500 μM) for 16 hours. RNA was isolated and processed as described in previous examples.

Substance | % mRNA EXPRESSION (Human B7-2 mRNA) | % mRNA INHIBITION (Human B7-2 mRNA) | also measured
10371 (antisense dG*dG*dG*dA*dG*dT*dC*dC*dT*dG*dG*dA*dG*dC*dC*dC*dC*dC*dT*dT) [compound 10371] |  |  | % Control Protein (human B7-2): 97.3%; % Control RNA Expression (hB7-2 mRNA): 92.9%
10372 (antisense dC*dC*dA*dT*dT*dA*dA*dG*dC*dT*dG*dG*dG*dC*dT*dT*dG*dG*dC*dC) [compound 10372] |  |  | % Control Protein (human B7-2): 101.7%; % Control RNA Expression (hB7-2 mRNA): 82.5%
10373 (antisense dT*dG*dC*dG*dA*dG*dC*dT*dC*dC*dC*dC*dG*dT*dA*dC*dC*dT*dC*dC) [compound 10373] |  |  | % Control Protein (human B7-2): 43.5%; % Control RNA Expression (hB7-2 mRNA): 32.7%; % mRNA EXPRESSION (hB7-2 mRNA; human B7-2 mRNA, Table 12): 24%; % mRNA INHIBITION (hB7-2 mRNA; human B7-2 mRNA, Table 12): 76%
113131 (antisense e[5mC]*eG*eT*eG*eT*dG*dT*d[5mC]*dT*dG*dT*dG*d[5mC]*dT*dA*eG*eT*e[5mC]*e[5mC]*e[5mC]) [compound 113131] | 13% | 87% | 
113132 (antisense eG*e[5mC]*eT*eG*e[5mC]*dT*dT*d[5mC]*dT*dG*d[5mC]*dT*dG*dT*dG*eA*e[5mC]*e[5mC]*eT*eA) [compound 113132] | 17% | 83% | 
113133 (antisense eT*eA*eT*eT*eT*dG*d[5mC]*dG*dA*dG*d[5mC]*dT*d[5mC]*d[5mC]*d[5mC]*e[5mC]*eG*eT*eA*e[5mC]) [compound 113133] | 214% |  | 
113134 (antisense eG*e[5mC]*eA*eT*eA*dA*dG*d[5mC]*dA*d[5mC]*dA*dG*d[5mC]*dA*dG*e[5mC]*eA*eT*eT*e[5mC]) [compound 113134] | 27% | 73% | 
113135 (antisense eT*e[5mC]*e[5mC]*eA*eA*dA*dA*dA*dG*dA*dG*dA*d[5mC]*d[5mC]*dA*eG*eA*eT*eG*e[5mC]) [compound 113135] | 66% | 34% | 
113136 (antisense eA*eA*eA*eT*eG*d[5mC]*d[5mC]*dT*dG*dT*d[5mC]*d[5mC]*dA*d[5mC]*dT*eG*eT*eA*eG*e[5mC]) [compound 113136] | 81% | 19% | 
113137 (antisense e[5mC]*eT*eT*e[5mC]*eA*dG*dA*dG*dG*dA*dG*d[5mC]*dA*dG*d[5mC]*eA*e[5mC]*e[5mC]*eA*eG) [compound 113137] | 57% | 43% | 
113138 (antisense eG*eA*eA*eT*e[5mC]*dT*dT*d[5mC]*dA*dG*dA*dG*dG*dA*dG*e[5mC]*eA*eG*e[5mC]*eA) [compound 113138] | 12% | 88% | 
113140 (antisense eG*e[5mC]*eT*eT*eT*dG*dG*dT*dT*dT*dT*dG*dA*dG*dA*eG*eT*eT*eT*eG) [compound 113140] | 214% |  | 
113141 (antisense eA*eG*eG*e[5mC]*eT*dT*dT*dG*dG*dT*dT*dT*dT*dG*dA*eG*eA*eG*eT*eT) [compound 113141] | 126% |  | 
113142 (antisense eG*e[5mC]*eT*e[5mC]*eA*d[5mC]*dT*d[5mC]*dA*dG*dG*d[5mC]*dT*dT*dT*eG*eG*eT*eT*eT) [compound 113142] | 35% | 65% | 
113143 (antisense eG*eG*eT*e[5mC]*e[5mC]*dT*dG*d[5mC]*d[5mC]*dA*dA*dA*dA*dT*dA*e[5mC]*eT*eA*e[5mC]*eT) [compound 113143] | 118% |  | 
113144 (antisense eA*eG*e[5mC]*e[5mC]*e[5mC]*dT*dT*dG*dT*d[5mC]*d[5mC]*dT*dT*dG*dA*eT*e[5mC]*eT*eG*eA) [compound 113144] | 41% | 59% | 
113145 (antisense eT*eG*eT*eG*eG*dG*d[5mC]*dT*dT*dT*dT*dT*dG*dT*dG*eA*eT*eG*eG*eA) [compound 113145] | 46% | 54% | 
113146 (antisense eA*eA*eT*e[5mC]*eA*dT*dT*d[5mC]*d[5mC]*dT*dG*dT*dG*dG*dG*e[5mC]*eT*eT*eT*eT) [compound 113146] | 32% | 68% | 
113147 (antisense e[5mC]*e[5mC]*eG*eT*eG*dT*dA*dT*dA*dG*dA*dT*dG*dA*dG*e[5mC]*eA*eG*eG*eT) [compound 113147] | 35% | 65% | 
113148 (antisense eA*e[5mC]*e[5mC]*eG*eT*dG*dT*dA*dT*dA*dG*dA*dT*dG*dA*eG*e[5mC]*eA*eG*eG) [compound 113148] | 23% | 77% | 
113149 (antisense eT*e[5mC]*eA*eT*e[5mC]*dT*dT*d[5mC]*dT*dT*dA*dG*dG*dT*dT*e[5mC]*eT*eG*eG*eG) [compound 113149] | 29% | 71% | 
113150 (antisense eA*e[5mC]*eA*eA*eG*d[5mC]*dT*dG*dA*dT*dG*dG*dA*dA*dA*e[5mC]*eG*eT*e[5mC]*eG) [compound 113150] | 19% | 81% | 
113151 (antisense eT*eG*e[5mC]*eT*e[5mC]*dG*dT*dA*dA*d[5mC]*dA*dT*d[5mC]*dA*dG*eG*eG*eA*eA*eT) [compound 113151] | 208% |  | 
113152 (antisense eA*eA*eG*eA*eT*dG*dG*dT*d[5mC]*dA*dT*dA*dT*dT*dG*e[5mC]*eT*e[5mC]*eG*eT) [compound 113152] | 89% | 11% | 
113153 (antisense e[5mC]*eG*e[5mC]*eG*eT*d[5mC]*dT*dT*dG*dT*d[5mC]*dA*dG*dT*dT*eT*e[5mC]*e[5mC]*eA*eG) [compound 113153] | 19% | 81% | 
113154 (antisense e[5mC]*eA*eG*e[5mC]*eT*dG*dT*dA*dA*dT*d[5mC]*d[5mC]*dA*dA*dG*eG*eA*eA*eT*eG) [compound 113154] | 63% | 37% | 
113155 (antisense eG*eG*eG*e[5mC]*eT*dT*d[5mC]*dA*dT*d[5mC]*dA*dG*dA*dT*d[5mC]*eT*eT*eT*e[5mC]*eA) [compound 113155] | 13% | 87% | 
113156 (antisense e[5mC]*eA*eT*eG*eT*dA*dT*d[5mC]*dA*d[5mC]*dT*dT*dT*dT*dG*eT*e[5mC]*eG*e[5mC]*eA) [compound 113156] | 83% | 17% | 
113157 (antisense eA*eG*e[5mC]*e[5mC]*e[5mC]*d[5mC]*d[5mC]*dT*dT*dA*dT*dT*dA*d[5mC]*dT*e[5mC]*eA*eT*eG*eG) [compound 113157] | 13% | 87% | 
